The text below walks through data of PMC8558239, “Interaction Between Florfenicol and Doxycycline Involving Cytochrome P450 3A in Goats (Capra hricus)” (Frontiers in Veterinary Science, 2021).

The subject of one data set is CYP3A24. The data set is described as follows: Incubation of recombinant CYP3A24 with FF and DOX (FFA production). Particulars: FF incubated with CYP3A24. It is filed as in vitro ADME, goat.
Data set [1] is described as follows: Tissue residue depletion in goats (LC-MS/MS). It is filed as in vivo, goats (Capra hircus). The following applies: both sexes, Boaer-cross, intramuscular, i.m., mean ± SD, 4 goats; for concentration at 0.5 days: 0.5 days after last dose; for concentration at 1 day: 1 day after last dose. The method, then:
In this study, a total of 54 Boaer-cross goats (Capra hircus) of both sexes, about 8 months old, were selected, weighing 28–36 kg. During the 1st week of acclimatization, all animals were raised in the usual way, with free access to feed and water. The experiment was conducted in accordance with the Guidelines for the Care and Use of Laboratory Animals issued by HZAU and approved by the Ethics Committee of Veterinary College of HZAU.
(§1) Throughout the experiment, all goats had ad libitum access to feed and water without antibiotics. The goats were divided into three groups, namely the control group (6 animals), the single group (24 animals), and the combined group (24 animals). The control group was fed without medication. In the single group, FF (Zhonglongshenli Animal Pharmaceutical Co., Ltd. Hefei, China, specification: 10 mL: 1 g) was injected into the neck muscles at 48 h intervals, twice in total. In the combined group, FF was injected into the neck muscles at 48 h intervals, twice in total, and DOX-hyclate (Zhonglongshenli Animal Pharmaceutical Co., Ltd. Hefei, China, specification: 10 mL: 1 g) was injected into the neck muscles, once a day for 3 days. The volume of the treatment solution was calculated individually for each goat to provide a dose equivalent to 20 mg FF/kg bw and 10 mg DOX/kg bw.
Goats of the single group (treated with FF) and goats of the combined group (treated with FF and DOX) were euthanized as previously described at 0.5 (n = 4), 1 (n = 4), 3 (n = 4), 7 (n = 4), 14 (n = 4), and 21 days (n = 4) after the last dose of 20 mg FF/kg bw (single group) and after the last dose of 20 mg FF/kg bw plus 10 mg DOX/kg bw (combined group). Goats were immediately exsanguinated, and tissue specimens of liver, kidney and muscle were collected separately. Each of the tissue specimens was carefully weighed and stored frozen at −20°C until assayed for concentrations of FF and FFA.
The method of FF and FFA pre-processing in the target tissues was as follows: Tissue samples weighing 1.00 ± 0.01 g were placed in a 10 mL centrifuge tube, then 5 mL 2% ammoniated ethyl acetate was added, and the tube was vortexed, sonicated and centrifuged. The above steps were repeated, and the supernatants were pooled and dried under a stream of nitrogen. The residue was reconstituted in 5% acetic acid in water, vortexed and passed through an MCX solid-phase extraction column (the order of the column was methanol, water, sample, 5% acetic acid water and 8% ammoniated ethyl acetate), then the eluate was dried under nitrogen, re-dissolved in 2 mL of degreased n-hexane, passed through a 0.22 μm filter membrane and subjected to LC-MS/MS (AB SCIEX API5000, USA) analysis.
All inter-assay coefficients of variation in each tissue were within 9.93%, the intra-assay coefficients of variation in each tissue were within 11.08%, and the recovery rates in each tissue were between 70.62 and 113.55%. […] For FF and FFA, the LOQ of the analysis was 10 μg/kg, and the LOD of the analysis was 2 μg/kg. The peak times of FFA and FF were 1.80 and 6.05, respectively (Figure 1).

The next data set deals with CYP3A24 gene. Kind of data set: Gene expression of CYP3A24 in goat liver (qPCR). The class given is in vivo, goats. The method, then: as §1, with “bw. […]” for “bw.”
Real-time quantitative polymerase chain reaction (qPCR) was used to detect the expression of CYP3A24 in treated goats. […] The concentration and purity of RNA was detected by Q3000 (Thermo, USA). […] The data were analyzed by the 2^ΔΔCt method.
(In general: In qPCR the cycle at which signal appears reflects the starting amount.)

Another data set has as its system CYP3A24 R372A. The following applies: mutant R372A.
The next data set concerns CYP3A24 R440A. The following applies: mutant R440A.
In data set [2] the test system is CYP3A24 and its mutants (R105A, R372A, R440A). The data set is described as follows: Protein activity verification of CYP3A24 and its mutants with testosterone. Particulars: TS 1 μmol/L, 60 min. The method, then:
Testosterone (TS) is a specific substrate of CYP3A, which can generate 6β-OHTS under the action of CYP3A ([21]). In order to study the protein activity of CYP3A24 and its mutants, we incubated each protein with TS. The experimental steps were as follows: protein (0.5 mg/mL) and NADPH (1 mmol/L) were added to PBS (pH 7.4) for 10 min at 37°C, then TS (Dr. Ehrenstorfer GmbH, Germany, 1 μmol/L) was added to start the reaction. The total reaction volume was 200 μL. At 60 min after drug addition, 200 μL of ice-cold acetonitrile was added to terminate the reaction. After centrifugation at 12,000 g/min for 15 min, the supernatant was filtered through a 0.22 μm membrane and analyzed by LC-MS/MS (AB SCIEX API5000, USA). For TS and 6β-OHTS, chromatographic separation occurred using a Thermo Scientific Hypersil Gold C18 column (150 × 2.1 mm, 5 μm particles), and analytes were detected on an API5000 mass analyser. Mobile phase A was 0.1% formic acid in water, and mobile phase B was methanol. The flow rate was 0.2 mL/min with a linear gradient under the following conditions: 0–0.10 min 5–85% B, 0.10–4.10 min 85% B, 4.10–8.00 min 85–5% B. The injection volume was set to 10 μL.

Setting [3] is: goat, 20 mg/kg bw, kidney, read-out: Tissue concentration FF.
The mark [4] stands for this setting: goat, 20 mg/kg bw, liver, read-out: Tissue concentration FF.
The mark [5] stands for this setting: goat, 20 mg/kg bw, muscle, read-out: Tissue concentration FF.

Like-named read-outs stand apart in the source and are kept apart here.

On to `C[C@H]1c2cccc(O)c2C(=O)C2=C(O)[C@]3(O)C(=O)C(C(N)=O)=C(O)[C@@H](N(C)C)[C@@H]3[C@@H](O)[C@@H]21` [DOX, α-6-deoxy-5-hydroxytetracycline], for which, in the data set with CYP3A24, the “reduction of FFA production on addition of DOX” value turned out to be 17.8%.

For the compound `CS(=O)(=O)c1ccc([C@@H](O)[C@@H](CF)NC(=O)C(Cl)Cl)cc1` [FF], the concentration at 3 days after last dose in data set [1] (goat (Capra hircus), 20 mg FF/kg bw, liver, 3 days after last dose) was determined as 936 ± 148 ng/g. Besides, in data set [1] (goat (Capra hircus), 20 mg FF/kg bw, liver, 7 days after last dose), the concentration at 7 days after last dose was 338 ± 126 ng/g. Moreover, the concentration at 14 days after last dose in data set [1] (goat (Capra hircus), 20 mg FF/kg bw, liver, 14 days after last dose) stood at 179 ± 26.5 ng/g. In data set [1] (goat (Capra hircus), 20 mg FF/kg bw, liver, 21 days after last dose), this compound gave a concentration at 21 days after last dose of 44.5 ± 17.6 ng/g. The concentration at 0.5 days amounted to 2260 ± 203 ng/g in data set [1] (setting [3]), 2790 ± 257 ng/g in data set [1] (setting [4]) and 1760 ± 201 ng/g in data set [1] (setting [5]). Besides, the concentration at 1 day in data set [1] (setting [3]) was found to be 1770 ± 142 ng/g; in data set [1] (setting [4]), 2050 ± 310 ng/g; in data set [1] (setting [5]), 858 ± 43.2 ng/g. Further, the concentration at 3 days in data set [1] (goat, 20 mg/kg bw, kidney, 3 days after last dose, read-out: Tissue concentration FF) amounted to 843 ± 124 ng/g; in data set [1] (goat, 20 mg/kg bw, muscle, 3 days after last dose, read-out: Tissue concentration FF), 376 ± 58.1 ng/g. The concentration at 7 days in data set [1] (goat, 20 mg/kg bw, kidney, 7 days after last dose, read-out: Tissue concentration FF) was 327 ± 43.4 ng/g; in data set [1] (goat, 20 mg/kg bw, muscle, 7 days after last dose, read-out: Tissue concentration FF) it was 162 ± 4.6 ng/g. Further, the concentration at 14 days in data set [1] (goat, 20 mg/kg bw, kidney, 14 days after last dose, read-out: Tissue concentration FF) turned out to be 131 ± 17.1 ng/g; in data set [1] (goat, 20 mg/kg bw, muscle, 14 days after last dose, read-out: Tissue concentration FF), 48.6 ± 7.6 ng/g. Besides, the concentration at 21 days in data set [1] (goat, 20 mg/kg bw, kidney, 21 days after last dose, read-out: Tissue concentration FF) came to 37.5 ± 8.6 ng/g. Also, the “up-regulation of CYP3A24 gene expression compared to control” value in the data set with CYP3A24 gene (1 day after treatment stopped) is “about 2.3 fold”; in the data set with CYP3A24 gene (3 days after treatment stopped), around 3 fold. In addition, the figures for the “reduction of FF metabolism (FFA production) vs CYP3A24” value with CYP3A24 R372A and in the data set with CYP3A24 R440A were 32.9% and 65.8%, respectively.

With `C[C@]12CC[C@H]3[C@@H](CCC4=CC(=O)CC[C@@]43C)[C@@H]1CC[C@@H]2O` [TS, Testosterone], the “metabolism of TS into 6β-OHTS” value in data set [2] is on record as “could metabolize TS”.
